For data set [1] the following is noted: patients on the MCT ketogenic diet; cited from earlier work.
The next data set concerns the target T1, AMPA receptor GluA1/2 (Homo sapiens, UniProt P42261+P42262).
T1 construct: expressed in transfected cells; host or cells: Xenopus laevis oocytes
Briefly: Direct AMPA receptor current recording (TEVC) in Xenopus oocytes, GluA1/2. Format: cell-based. On the procedure: (§1) FIG. 1. AMPA (GluA2/3, GluA1/2, or GluA3) receptors were expressed in Xenopus oocytes, and perfused with L-glutamate (100 μM) and the indicated compound, unless stated otherwise. Currents were recorded using TEVC. (A) Representative current traces of inhibitory dose-response curves for perampanel on GluA1/2 and GluA2/3 receptors. (B) Dose-response curve showing inhibition of GluA1/2 (N=10) and GluA2/3 (N=6) by perampanel, with respective IC50 values shown in bar graph inset. (C) Effect of varying perampanel concentrations on glutamate EC50 against GluA1/2. Points were normalised to maximal response and represent the mean and SEM of 6 (glutamate only) and 5 (with 2.5 μM and 5 μM perampanel). (D) Quantitative representation of mean currents recorded in wildtype and mutant GluA3 normalised to maximal responses in the presence of perampanel (N=5 for wildtype and N=6 for mutant) and decanoic acid, DA (N=4 for both wildtype and mutant).
(§2) FIG. 2. AMPA (GluA2/3, GluA 1/2, or GluA3) receptors were expressed in Xenopus oocytes, and perfused with L-glutamate (100 μM) and the indicated compound, unless stated otherwise. Currents were recorded using TEVC. (A) Representative current traces of inhibitory dose-response curves for decanoic acid (DA) on GluA2/3 receptors at 1 μM or 4 μM perampanel. Dose-response inhibition curves for decanoic acid at 1μM or 4 μM perampanel on (B) GluA2/3 and (C) GluA1/2 receptors. Points were normalised to maximal response to L-glutamate and solvent, 1 μM perampanel or 4 μM perampanel and represent means and SEM of 8 to 13 readings. Inserts show respective ICs50 values in the presence of perampanel. (D) Representative current traces of inhibitory dose-response curves for perampanel on GluA2/3 receptors at 50 μM to 100 μM decanoic acid. (E), (F) Dose-response inhibition curves for perampanel at 50 μM and 100 μM DA on GluA2/3 (E) and GluA1/2 (F) receptors. Points were normalised to maximal response to L-glutamate with solvent, 50 μM and 100 μM DA and represent means and SEM of 8 to 13 readings. Inserts show respective perampanel IC50 values in the presence of DA. Scale bars correspond to 150 nA in GluA1/2 and 30 nA in GluA2/3 (A), 50 nA (E) and 200 nA (H). Scale bars correspond to 60 nA for +1 μM perampanel and 75 nA for +4 μM perampanel (K) and 200 nA (L).
(§3) As previously described (Chang et al. 2016. Brain 139: 431-43), AMPA receptor subunits (GluA2/3, GluA1/2, and GluA3) were expressed in Xenopus oocytes and agonist elicited inward currents were used to measure inhibition by decanoic acid (Sigma Ltd) and perampanel (Apexmol Technology Co. Ltd).

The subject of data set [2] is GYKI resistant subunit GluA3 mutant. Briefly: Direct AMPA receptor current recording in Xenopus oocytes, GYKI resistant GluA3 mutant. It counts as cell-based. As for the experimental part: as §1, §3
(§4) To confirm this, we expressed a GYKI resistant subunit GluA3 mutant (11) and assessed it for sensitivity to perampanel and decanoic acid (FIG. 1C).

For data set [3] the following is noted: rodent models; cited from earlier work.
Data set [4] concerns PTZ-induced epileptiform activity in rat entorhinal cortex-hippocampal slices. Kind of data set: Rat hippocampal PTZ seizure-like activity analysis. It counts as cell-based. The note with it: for IC50: Rattus norvegicus, read-out: decanoic acid IC50 for epileptiform activity; for seizure activity: modelled data. As for the experimental part: FIG. 3. (A) Epileptiform (paroxysmal) activity was induced in rat entorhinal cortex-hippocampal slices by application of PTZ (2 mM) and [K+] (to 6 mM), and recorded over time at fixed perampanel and increasing decanoic acid (DA) concentration. (B) Epileptiform activity was normalised to activity in absence or presence of each concentration (100 nM and 500 nM) and shown at variable DA concentrations. […] Data is derived from at least three biological repeats.
Seizure-like activity was induced, as previously described (Chang et al. 2016. Brain 139: 431-43), in rat entorhinal cortex-hippocamal slices by application of PTZ (2 mM) to the perfusate and [K+] was increased (to 6 mM). Perampanel (100 or 500 nM) or DMSO was applied to the perfusate, and then decanoic acid (Sigma Ltd) was applied at increasing concentrations at 10 minutes intervals. The change in the frequency of the discharges was measured at minute intervals, averaged every 5 minutes, and normalised to baseline. Data were analyzed using Origin (OriginLab Corporation, MA USA) and SPSS (IBM, UK) with IC50 values calculated from fitting data values with a Hill plot. Statistical analysis was performed using a one-way ANOVA with two-way Dunnett's post hoc test.

Data set [5] can be described thus: Decanoic acid levels in patients on the MCT ketogenic diet. It counts as in vivo. Particulars: extrapolating the rodent ratio to human brain.
The next data set deals with T2, AMPA receptor GluA2/3 (Homo sapiens, UniProt P42262+P42263).
T2 construct: expressed in transfected cells; host or cells: Xenopus laevis oocytes
Kind of data set: Direct AMPA receptor current recording (TEVC) in Xenopus oocytes, GluA2/3. It counts as cell-based. As for the experimental part: as §1, §2, §3

The target of data set [6] is T3, wild type AMPA receptor (GluA3) (Homo sapiens, UniProt P42263).
T3 construct: expressed in transfected cells; host or cells: Xenopus oocytes
Briefly: Direct AMPA receptor current recording in Xenopus oocytes, wild type GluA3. It counts as cell-based. As for the experimental part: as §1, §3, §4

Setting [7] is: IC50, inhibition of AMPA receptor currents, perampanel alone, currents elicited by glutamate, Xenopus oocytes (FIG. 1B).
Setting [8] is: read-out: glutamate evoked maximal response reduced to.

Like-named read-outs stand apart in the source and are kept apart here.

T2 sequence (P42262 22-883 limits assumed): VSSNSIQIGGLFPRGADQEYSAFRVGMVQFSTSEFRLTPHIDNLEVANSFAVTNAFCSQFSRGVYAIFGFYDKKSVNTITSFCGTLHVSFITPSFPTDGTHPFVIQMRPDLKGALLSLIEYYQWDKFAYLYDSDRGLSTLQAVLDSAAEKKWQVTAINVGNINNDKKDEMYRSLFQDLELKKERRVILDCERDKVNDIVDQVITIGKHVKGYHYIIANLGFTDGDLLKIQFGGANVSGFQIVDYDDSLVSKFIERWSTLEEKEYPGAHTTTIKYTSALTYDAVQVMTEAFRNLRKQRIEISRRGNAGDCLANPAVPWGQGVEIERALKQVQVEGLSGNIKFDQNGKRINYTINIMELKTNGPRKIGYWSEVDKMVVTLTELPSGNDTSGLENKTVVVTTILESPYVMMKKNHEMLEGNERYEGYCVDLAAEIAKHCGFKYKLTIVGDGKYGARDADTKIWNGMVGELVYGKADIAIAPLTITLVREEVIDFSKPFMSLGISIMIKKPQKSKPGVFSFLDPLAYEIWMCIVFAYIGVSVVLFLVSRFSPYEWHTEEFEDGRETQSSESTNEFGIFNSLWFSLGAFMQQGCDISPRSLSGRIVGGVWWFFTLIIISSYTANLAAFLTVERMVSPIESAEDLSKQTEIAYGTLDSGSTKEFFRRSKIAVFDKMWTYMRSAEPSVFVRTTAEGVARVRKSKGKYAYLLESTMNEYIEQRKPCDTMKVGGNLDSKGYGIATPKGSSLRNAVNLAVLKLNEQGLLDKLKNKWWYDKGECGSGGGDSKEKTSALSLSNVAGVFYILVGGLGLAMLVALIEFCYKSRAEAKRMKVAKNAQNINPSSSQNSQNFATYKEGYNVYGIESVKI
T2 sequence (P42263 29-894): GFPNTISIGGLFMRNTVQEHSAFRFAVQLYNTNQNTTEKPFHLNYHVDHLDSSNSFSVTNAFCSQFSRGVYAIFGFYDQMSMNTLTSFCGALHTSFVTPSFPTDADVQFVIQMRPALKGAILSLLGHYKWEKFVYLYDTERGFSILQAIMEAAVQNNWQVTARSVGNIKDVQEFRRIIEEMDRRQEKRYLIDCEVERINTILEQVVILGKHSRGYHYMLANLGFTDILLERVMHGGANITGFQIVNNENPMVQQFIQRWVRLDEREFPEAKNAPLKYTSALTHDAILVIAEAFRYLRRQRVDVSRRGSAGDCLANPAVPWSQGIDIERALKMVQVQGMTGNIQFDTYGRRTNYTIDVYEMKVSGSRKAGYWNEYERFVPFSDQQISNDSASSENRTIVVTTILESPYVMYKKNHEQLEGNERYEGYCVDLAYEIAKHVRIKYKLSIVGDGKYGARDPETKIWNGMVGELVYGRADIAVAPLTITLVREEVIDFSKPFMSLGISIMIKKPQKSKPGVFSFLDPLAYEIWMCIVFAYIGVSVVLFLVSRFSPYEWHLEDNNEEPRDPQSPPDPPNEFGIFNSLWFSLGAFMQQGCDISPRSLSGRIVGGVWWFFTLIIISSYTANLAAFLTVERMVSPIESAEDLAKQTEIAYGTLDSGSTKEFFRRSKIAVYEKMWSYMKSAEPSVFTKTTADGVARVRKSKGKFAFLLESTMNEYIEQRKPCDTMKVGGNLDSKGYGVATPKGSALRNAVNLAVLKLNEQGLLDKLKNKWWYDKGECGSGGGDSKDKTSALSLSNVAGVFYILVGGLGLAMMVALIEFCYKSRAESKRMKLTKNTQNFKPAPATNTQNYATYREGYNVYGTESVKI
T1 sequence (P42261 19-906): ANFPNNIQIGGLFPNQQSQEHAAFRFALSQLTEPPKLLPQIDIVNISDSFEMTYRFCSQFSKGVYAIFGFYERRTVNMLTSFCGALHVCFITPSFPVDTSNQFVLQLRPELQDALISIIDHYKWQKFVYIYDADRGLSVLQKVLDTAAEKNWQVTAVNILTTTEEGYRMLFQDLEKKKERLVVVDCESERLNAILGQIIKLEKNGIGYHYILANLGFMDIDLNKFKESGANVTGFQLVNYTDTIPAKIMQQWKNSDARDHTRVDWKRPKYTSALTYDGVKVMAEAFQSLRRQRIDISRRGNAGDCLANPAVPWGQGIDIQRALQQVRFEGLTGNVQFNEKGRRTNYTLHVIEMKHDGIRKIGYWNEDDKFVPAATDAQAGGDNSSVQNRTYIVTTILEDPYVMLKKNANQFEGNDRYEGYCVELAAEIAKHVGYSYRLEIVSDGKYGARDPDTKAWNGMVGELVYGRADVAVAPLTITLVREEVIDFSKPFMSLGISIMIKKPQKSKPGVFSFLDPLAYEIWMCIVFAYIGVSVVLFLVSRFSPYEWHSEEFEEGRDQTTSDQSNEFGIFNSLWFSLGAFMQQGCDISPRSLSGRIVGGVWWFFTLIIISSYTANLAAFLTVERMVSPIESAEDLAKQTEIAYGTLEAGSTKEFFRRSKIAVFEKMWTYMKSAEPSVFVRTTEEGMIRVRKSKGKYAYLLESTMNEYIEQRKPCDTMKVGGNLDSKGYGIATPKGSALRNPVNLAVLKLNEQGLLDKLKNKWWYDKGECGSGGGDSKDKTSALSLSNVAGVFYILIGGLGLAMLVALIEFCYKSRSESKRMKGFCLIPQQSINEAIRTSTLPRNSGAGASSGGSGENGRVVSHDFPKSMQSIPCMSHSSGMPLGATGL
T1 sequence (P42262 22-883 limits assumed): as the sequence (P42262 22-883 limits assumed) above
T3 sequence (P42263 29-894, species assumed): as the sequence (P42263 29-894) above

Take `CCCCCCCCCC(=O)O` [decanoic acid]: the “average concentration of decanoic acid in peripheral blood” value in data set [1] was 157 µM. Besides, the IC50 at AMPA receptor GluA1/2 (in the absence of perampanel, read-out: decanoic acid IC50 for GluA1/2) was determined as 920 µM; on AMPA receptor GluA1/2 (in the presence of 1 μM perampanel, read-out: decanoic acid IC50 for GluA1/2), 210 µM; at AMPA receptor GluA1/2 (in the presence of 4 μM perampanel, read-out: decanoic acid IC50 for GluA1/2), 90 µM; in data set [4] (at 100 nM perampanel), 196 µM; in data set [4] (at 500 nM perampanel), 122 µM; in data set [4] (without perampanel), 352 µM. In addition, the IC50 on AMPA receptor GluA2/3 (in the absence of perampanel, read-out: decanoic acid IC50 for GluA2/3) is 520 µM; at AMPA receptor GluA2/3 (in the presence of 1 μM perampanel, read-out: decanoic acid IC50 for GluA2/3), 100 µM; at AMPA receptor GluA2/3 (in the presence of 4 μM perampanel, read-out: decanoic acid IC50 for GluA2/3), 40 µM. Moreover, the “reduction of glutamate-induced currents” value in data set [2] (decanoic acid 1 mM) is reported as 72.8%; in data set [6] (decanoic acid 1 mM), 74.5%. Further, the “ratio of decanoic acid in brain to blood plasma” value in data set [3] is recorded as “around 0.7”. In addition, the seizure activity in data set [4] (decanoic acid 10 μM combined with perampanel 100 nM) was determined as 76.8%. In data set [4] (decanoic acid 10 μM with perampanel 500 nM), the “seizure activity (baseline inhibition reduced to)” value was 69.6%. The “concentration giving block of epileptiform activity” value in data set [4] (decanoic acid alone) worked out at 1000 µM. The “concentration at which epileptiform activity was reduced” value in data set [4] (decanoic acid alone, increasing concentrations) stood at 300 µM. The “concentration giving block in seizure activity” value in data set [4] (decanoic acid combined with perampanel 100 nM) amounted to 600 µM. In data set [5], the “average concentration of decanoic acid in the brain” value was “around 110 μM”.

As for `N#Cc1ccccc1-c1cc(-c2ccccn2)cn(-c2ccccc2)c1=O` [perampanel, 3-(2-Cyanophenyl)-5-(2-pyridyl)-1-phenyl-1,2-dihydropyridin-2-one], the IC50 worked out at 1.12 µM at AMPA receptor GluA1/2 (setting [7]); 2.1 µM on AMPA receptor GluA1/2 (perampanel IC50 in GluA1/2); 6.2 µM against AMPA receptor GluA1/2 (perampanel IC50 in GluA1/2, in the absence of DA (FIG. 2F)); 2.2 µM on AMPA receptor GluA1/2 (perampanel IC50 in GluA1/2, in the presence of DA); 1.51 µM against AMPA receptor GluA2/3 (setting [7]); 5.1 µM against AMPA receptor GluA2/3 (perampanel IC50 in GluA2/3, in the absence of DA (FIG. 2E)). The IC50 on AMPA receptor GluA2/3 (perampanel IC50 in GluA2/3, in the presence of DA at 50 mM) is 1.7 µM; on AMPA receptor GluA2/3 (perampanel IC50 in GluA2/3, in the presence of DA at 100 Mm), 1.6 µM. Moreover, the “reduction in the IC50 value for perampanel” value is recorded as around 3 fold at AMPA receptor GluA1/2 (in combination with decanoic acid, GluA1/2) and around 3 fold at AMPA receptor GluA2/3 (in combination with decanoic acid, GluA2/3). Also, on AMPA receptor GluA1/2 (increasing glutamate concentrations not reversing inhibition (FIG. 1C)), the “manner of inhibition of AMPA receptor currents” value is reported as “non-competitive”. Moreover, the Emax at 2.5 µM at AMPA receptor GluA1/2 (setting [8]) came to 75.2%. In addition, the Emax at 5 µM on AMPA receptor GluA1/2 (setting [8]) was 16.9%. Further, the figures for the “reduction of glutamate-induced currents” value in data set [2] (perampanel 20 μM) and in data set [6] (perampanel 20 μM) were 54.3% and 94.7%, respectively. The compound further yielded a seizure activity in data set [4] (perampanel 100 nM, in the absence of decanoic acid) of 95.6%. The “increase in the inhibition of the AMPA receptor by perampanel” value on AMPA receptor GluA2/3 (with 100 μM decanoic acid, subunit combination not specified) is given as 3 fold.
